Like-named read-outs stand apart in the source and are kept apart here.
Experiments:
[1] = biological target: T1, Mtb20SOG (Mycobacterium tuberculosis, UniProt P9WHT9)
[2] = over 22 hours
[3] = test system: mycobacterial proteasome in M. bovis strain BCG; assay type: cell-based; conditions: for protection of mycobacterial proteasome from HT1171: then HT1171 25 μM 1 hour
[4] = biological target: human i-20S β5i (Homo sapiens, UniProt P20618+P28062); assay: Inhibition of human immunoproteasome β5i; assay type: biochemical; conditions: Table 2
[5] = biological target: human c-20S β5c (Homo sapiens, UniProt P20618+P28074); assay: Inhibition of human constitutive 20S β5c; assay type: biochemical; conditions: read-out: Ki μM β5c; Table 2
[6] = biological target: Mtb20SOG
[7] = biological target: T1, Mtb20SOG; remark: listed apart in the source

T1 sequence (P9WHT9 58-291): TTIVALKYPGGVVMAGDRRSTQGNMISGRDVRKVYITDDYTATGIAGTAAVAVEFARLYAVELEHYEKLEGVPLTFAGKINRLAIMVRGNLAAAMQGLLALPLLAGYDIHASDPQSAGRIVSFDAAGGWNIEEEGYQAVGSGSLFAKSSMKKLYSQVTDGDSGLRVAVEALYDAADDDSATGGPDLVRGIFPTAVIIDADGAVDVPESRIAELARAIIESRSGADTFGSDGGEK

Compound | apparent kon [1] | dissociation rate constant koff [1] [s⁻¹] | mode of inhibition of Mtb20SOG [1] | Ki ([1]; read-out: Ki^app calculated from koff/kon) [nM] | Ki ([1]; read-out: apparent Ki^app against Mtb20SOG) [nM] | stability in human plasma [2] | protection of mycobacterial proteasome from HT1171 ([3]; DPLG-2 1 μM 4 hours) | protection of mycobacterial proteasome from HT1171 ([3]; DPLG-2 10 μM 4 hours) | protection of mycobacterial proteasome from HT1171 ([3]; DPLG-2 50 μM 4 hours) | Ki(β5i)/Ki(Mtb) [4] | Ki ([4]; read-out: Ki μM β5i) [µM] | Ki [5] [µM] | Ki(β5c)/Ki(Mtb) [6] | species selectivity for Mtb20SOG over human constitutive proteasome β5 subunit [6] [fold] | increase in potency against Mtb20SOG compared to ML9 [7] [fold] | Ki ([7]; read-out: Ki μM Mtb20SOG) [µM] | inhibition of proteasomes in intact BCG ([3]; HT1171 25 μM, 1 hour, absence of DPLG-2)
CCN(CC)C(=O)C[C@H](NC(=O)CCc1ccccc1)C(=O)N[C@@H](Cc1ccc(F)cc1)C(=O)NCc1cccc2ccccc12 [DPLG-2] | 5.7 ± 0.2 × 10^4 M^−1s^−1 | 0.0015 ± 0.0001 | time-dependent manner | 26.3 | 24.2 ± 0.9 | stable | HT1171 inhibited the proteasomes irreversibly | able to shield the mycobacterial proteasome active sites from HT1171 | able to shield the mycobacterial proteasome active sites from HT1171 | 3650 | 54.7 | 70 | 4670 | 4670 | 4 | 0.015 | –
Cc1sc(-c2nsc(=O)o2)cc1[N+](=O)[O-] [HT1171, reference compound] | – | – | – | – | – | – | – | – | – | – | – | – | – | – | – | – | inhibited the proteasomes irreversibly

Reference: article PMC3773049 (Journal of the American Chemical Society, 2013)
